Results on three molecules are retold here after PMC2394492 (British Journal of Cancer, 2003).

For data set [1], the target named is T1, dihydropyrimidine dehydrogenase (DPD) (Homo sapiens, UniProt Q12882).
T1 construct: from tissue; host or cells: patients in vivo (DPD mainly in the liver); plasma sampled
T1 sequence (Q12882 4-1025): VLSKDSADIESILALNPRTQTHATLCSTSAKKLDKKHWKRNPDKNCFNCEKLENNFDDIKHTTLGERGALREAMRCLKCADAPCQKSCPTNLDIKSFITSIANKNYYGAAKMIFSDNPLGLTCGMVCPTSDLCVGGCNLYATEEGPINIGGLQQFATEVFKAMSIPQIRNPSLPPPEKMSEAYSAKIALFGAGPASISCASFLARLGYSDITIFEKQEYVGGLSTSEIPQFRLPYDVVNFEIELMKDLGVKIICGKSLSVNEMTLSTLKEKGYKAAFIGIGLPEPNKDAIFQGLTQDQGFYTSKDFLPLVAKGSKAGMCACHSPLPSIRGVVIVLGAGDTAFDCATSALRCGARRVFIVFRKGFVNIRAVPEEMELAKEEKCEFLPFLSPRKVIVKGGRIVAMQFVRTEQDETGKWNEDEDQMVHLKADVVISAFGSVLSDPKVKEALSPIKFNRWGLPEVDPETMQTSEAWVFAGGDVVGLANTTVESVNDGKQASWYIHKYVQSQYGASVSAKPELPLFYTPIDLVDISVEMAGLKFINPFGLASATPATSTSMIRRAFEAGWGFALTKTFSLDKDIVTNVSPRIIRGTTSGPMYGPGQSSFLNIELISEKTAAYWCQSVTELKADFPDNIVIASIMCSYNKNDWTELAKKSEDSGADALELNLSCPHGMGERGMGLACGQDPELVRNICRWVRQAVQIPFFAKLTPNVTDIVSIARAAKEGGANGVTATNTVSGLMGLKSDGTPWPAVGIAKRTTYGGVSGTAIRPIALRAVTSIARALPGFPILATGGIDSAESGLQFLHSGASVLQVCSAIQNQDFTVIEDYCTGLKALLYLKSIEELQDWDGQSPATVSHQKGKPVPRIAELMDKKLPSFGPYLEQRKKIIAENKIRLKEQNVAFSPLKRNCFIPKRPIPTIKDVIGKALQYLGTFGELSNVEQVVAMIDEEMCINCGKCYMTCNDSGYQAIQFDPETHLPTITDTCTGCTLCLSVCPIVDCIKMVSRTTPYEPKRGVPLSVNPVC
Description: Plasma uracil concentration as surrogate marker of DPD inhibition (pharmacodynamic analysis). Format: in vivo. The note with it: for AUC of uracil: 10 patients, surrogate marker of DPD inhibition. As for the experimental part: All 10 patients received 5-FU by PVI at a rate of 250 mg m^−2 day^−1 via a peripheral vein. Infusion was carried out with the use of a battery-operated pump (STC-508, Terumo Co., Ltd., Tokyo, Japan) for five consecutive days. The assigned daily dose of 5-FU was diluted in 500 ml of normal saline for infusion.
On days 1 and 5 of 5-FU PVI, blood samples were taken at 0 (before administration), 2, 6, and 10 h after the start of the infusion (0900 hours in all patients). On days 2–4, one blood sample was obtained at 0900 hours before the start of the next 24-h cycle. […] On day 5, blood samples were obtained at 0, 2, […], and 10 h. Peripheral blood samples (6 ml per sampling time) were collected in heparinised tubes and centrifuged at 1000 g for 15 min at 4°C. The plasma was stored at −20°C until analysis. Urine was collected from 0 to 24 h after the start of drug administration on day 1 of each treatment and refrigerated during the collection period.
Analysis of 5-FU and uracil was carried out as described by [Matsushima et al (1997)], with minor modification. 5-Fluorouracil and uracil were extracted with ethyl acetate after washing with dichloromethane and were subjected to a reaction to induce their trimethylsilyl derivatives. 5-Fluorouracil and uracil were analysed by electron impact ionisation gas-chromatography/mass-spectrometry (GC–MS). For analysis of 5-FU by GC–MS, stable isotopes were used as internal standards. The measurable ranges of plasma or urine levels were 1–400 ng ml^−1 for 5-FU and 5–2000 ng ml^−1 for uracil. For analysis of FBAL, plasma was deproteinised with ethanol and washed with dichloromethane. F-β-alanine was treated with 2,4-dinitrofluorobenzene to derive its dinitrophenyl ester, and the reaction product was extracted with dichloromethane under acidic conditions. The reaction product was separated by high-pressure liquid chromatography (LC) with a reversed-phase column, and LC/tandem-mass spectrometry was performed with the use of negative ion-electron spray ionisation. DL-norvaline was used as an internal standard. […]

The conditions of data set [2]: cited from earlier work.
A short description of data set [3]: Plasma pharmacokinetics of 5-FU and FBAL after PVI of 5-FU and oral S-1 in patients. The data set is classed as in vivo, human.
Description: Infusion was carried out with the use of a battery-operated pump (STC-508, Terumo Co., Ltd., Tokyo, Japan) for five consecutive days. […] After a washout period of 9 days, patients received S-1 in two divided doses daily for 28 consecutive days. S-1 was administered orally within 1 h after breakfast and supper, at about 0900 and 1900 hours The daily dose of S-1 in terms of tegafur was 80 mg day^−1 in patients with a body surface area (BSA) of <1.25 m^2, 100 mg day^−1 in those with a BSA of ⩾1.25 m^2 to <1.5 m^2, and 120 mg day^−1 in those with a BSA of ⩾1.5 m^2.
On days 2–4, one blood sample was obtained at 0900 hours before the start of the next 24-h cycle. During oral administration of S-1, blood samples were taken on day 1 before the first dose of the day and at 1, 2, 4, 6, and 10 h. On days 2–4 of S-1 treatment, blood samples were taken before administration in the morning and at 4 and 10 h. On day 5, blood samples were obtained at 0, 2, 4, and 10 h. Peripheral blood samples (6 ml per sampling time) were collected in heparinised tubes and centrifuged at 1000 g for 15 min at 4°C. The plasma was stored at −20°C until analysis. Urine was collected from 0 to 24 h after the start of drug administration on day 1 of each treatment and refrigerated during the collection period.
The test system of data set [4] is dihydropyrimidine dehydrogenase (DPD). The note with it: in vitro; background statement, no reference given; cited from earlier work.
[5] abbreviates: patients given 5-FU by PVI, ref Lokich et al, 1989.

In the case of `O=c1[nH]cc(F)c(=O)[nH]1` [5-FU, 5-fluorouracil], the AUC of uracil in data set [1] (Day 1, 0 to 10 h) is 200 ± 60 ng·h/mL. This molecule returned an AUC of uracil in data set [1] (Day 5, 0 to 10 h) of 252 ± 60 ng·h/mL. Also, in data set [1] (day 5 (abstract)), the “AUC0–10 h of uracil” value worked out at 252 ± 60 ng·h/mL. Moreover, the “dose-limiting toxicity (DLT)” value in data set [2] (5-FU by PVI, ref Lokich et al, 1989) was “HFS”. For the same molecule, in data set [2] (setting [5]), the “incidence of grade 3 leukopenia” value is 1%, the “incidence of hand–foot syndrome” value is “about 23%” and the incidence of stomatitis result was “about 23%”. For the same molecule, the “time to steady state of plasma 5-FU concentration after the start of PVI” value in data set [3] (PVI of 5-FU) is reported as 2 h. Besides, the “AUC0–10 h of 5-FU” value in data set [3] (plasma, day 5 (abstract)) amounted to 728 ± 113 ng·h/mL.
With `Oc1cc(O)c(Cl)cn1` [CDHP, 5-chloro-2,4-dihydroxypyridine], the “DPD-inhibitory activity relative to that of uracil” value in data set [4] is 180 fold.
Consider `CCCCCOC(=O)Nc1nc(=O)n([C@@H]2O[C@H](C)[C@@H](O)[C@H]2O)cc1F` [capecitabine], for which the “incidence of grade 3 HFS” value in data set [2] (capecitabine, ref Van Cutsem et al, 2000, 2001, Hoff et al, 2001) was 15–18%. The “incidence of HFS” value in data set [2] (capecitabine, ref Van Cutsem et al, 2000) was 45%. Also, the incidence of cardiotoxicity in data set [2] (randomised phase II trial, metastatic colorectal cancer, five out of 108, ref Van Cutsem et al, 2000) is 5%. Further, in data set [2] (randomised phase II trial, metastatic colorectal cancer, ref Van Cutsem et al, 2000), the incidence of paresthesia is reported as 12%.
